Assay results reported in patent US5064954A, “Process for producing halomethylcarbapenems” (Shionogi & Co., Ltd., priority 1990, dated 1991).
Values after ≈ are worked out from the molar mass of the structure shown. Structures can show the parent of a compound that is named as a salt.

How the values were obtained:
Format in all cases: cell-based
[1] = system: Ps. aeruginosa SR-24; experiment: MIC against Ps. aeruginosa SR-24; conditions: Pseudomonas aeruginosa, SR24
Text: |MIC: μg/ml (inoculum size = 10^5 /ml) |P = Ps. aeruginosa SR-24

[2] = system: S. aureus Smith; experiment: MIC against S. aureus Smith; conditions: Staphylococcus aureus
Text: |MIC: μg/ml (inoculum size = 10^5 /ml) |S = S. aureus Smith

[3] = system: E. coli EC-14; experiment: MIC against E. coli EC-14; conditions: Escherichia coli, EC14
Text: |MIC: μg/ml (inoculum size = 10^5 /ml) |E = E. coli EC-14

[4] = Table I, P = Ps. aeruginosa SR-24, inoculum size = 10^5 /ml
[5] = Table I, S = S. aureus Smith, inoculum size = 10^5 /ml
[6] = Table I, E = E. coli EC-14, inoculum size = 10^5 /ml
[7] = Table II, P (key, unit and inoculum given only in Table I)
[8] = Table II, S (key, unit and inoculum given only in Table I)
[9] = Table II, E (key, unit and inoculum given only in Table I)
[10] = Table III, P (key, unit and inoculum given only in Table I)
[11] = Table III, S (key, unit and inoculum given only in Table I)
[12] = Table III, E (key, unit and inoculum given only in Table I)

Row | Structure (SMILES) | MIC [1, 4] [µg/mL] | MIC [2, 5] [µg/mL] | MIC [3, 6] [µg/mL] | also measured
1 | CC(O)[C@H]1C(=O)N2C(C(=O)[O-])=C(C[N+]3(C)CCCC3)[C@H](C)[C@H]12 (stereo partly drawn) [Table II No. 1] |  |  |  | MIC [1, 7]: 3.13 µg/mL (≈ 10.1 µM); MIC [2, 8]: 0.025 µg/mL (≈ 0.0811 µM); MIC [3, 9]: 0.1 µg/mL (≈ 0.324 µM)
2 | Cc1cc[n+](CC2=C(C(=O)[O-])N3C(=O)[C@H](C(C)O)[C@H]3[C@H]2C)cc1 (stereo partly drawn) [Table I No. 6] | 3.13 (≈ 9.89 µM) | 0.025 (≈ 0.079 µM) | 0.39 (≈ 1.23 µM) | 
3 | CC(O)[C@H]1C(=O)N2C(C(=O)[O-])=C(C[n+]3cccc(N)c3)[C@H](C)[C@H]12 (stereo partly drawn) [Table I No. 19] | 1.56 (≈ 4.92 µM) | 0.0125 (≈ 0.0394 µM) | 0.2 (≈ 0.63 µM) | 
4 | CC(O)[C@H]1C(=O)N2C(C(=O)[O-])=C(C[N+]3(CC(=O)O)CCCC3)[C@H](C)[C@H]12 (stereo partly drawn) [Table II No. 3] |  |  |  | MIC [1, 7]: 50 µg/mL (≈ 142 µM); MIC [2, 8]: 0.39 µg/mL (≈ 1.11 µM); MIC [3, 9]: 0.39 µg/mL (≈ 1.11 µM)
5 | CC(O)[C@H]1C(=O)N2C(C(=O)O)=C(CN3CCC(N)C3)[C@H](C)[C@H]12 (stereo partly drawn) [Table III No. 3] |  |  |  | MIC [1, 10]: 3.13 µg/mL (≈ 10.1 µM); MIC [2, 11]: 0.05 µg/mL (≈ 0.162 µM); MIC [3, 12]: 0.78 µg/mL (≈ 2.52 µM)
6 | CC(O)[C@H]1C(=O)N2C(C(=O)[O-])=C(C[n+]3cccc(CN)c3)[C@H](C)[C@H]12 (stereo partly drawn) [Table I No. 9] | 3.13 (≈ 9.45 µM) | 0.05 (≈ 0.151 µM) | 0.78 (≈ 2.35 µM) | 
7 | CC(O)[C@H]1C(=O)N2C(C(=O)[O-])=C(C[N+]34CCC(CC3)CC4)[C@H](C)[C@H]12 (stereo partly drawn) [Table II No. 5, 1β-methyl-2-(quinuclidinio-1-yl)-methyl-6α-(1-hydroxyethyl)-1-carba-2-penem-4-carboxylate] |  |  |  | MIC [1, 7]: 6.25 µg/mL (≈ 18.7 µM); MIC [2, 8]: 0.025 µg/mL (≈ 0.0748 µM); MIC [3, 9]: 0.2 µg/mL (≈ 0.598 µM)
8 | CC(O)[C@H]1C(=O)N2C(C(=O)[O-])=C(C[n+]3cccc(CNC=O)c3)[C@H](C)[C@H]12 (stereo partly drawn) [Table I No. 11] | 3.13 (≈ 8.71 µM) | 0.05 (≈ 0.139 µM) | 0.78 (≈ 2.17 µM) | 
9 | CC(O)[C@H]1C(=O)N2C(C(=O)O)=C(CN3CCCCC3)[C@H](C)[C@H]12 (stereo partly drawn) [Table III No. 4, 1β-methyl-2-(piperidin-1-yl)methyl-6α-(1-hydroxyethyl)-1-carba-2-penem-4-carboxylic acid sodium salt] |  |  |  | MIC [1, 10]: 50 µg/mL; MIC [2, 11]: 0.0125 µg/mL; MIC [3, 12]: 1.56 µg/mL

Now from value to molecule, other results behind:

Row | MIC [1, 4] [µg/mL] | MIC [2, 5] [µg/mL] | MIC [3, 6] [µg/mL] | Structure (SMILES) | also measured
10 | 6.25 (≈ 19.7 µM) | 0.0125 (≈ 0.0394 µM) | 0.2 (≈ 0.63 µM) | CC(O)[C@H]1C(=O)N2C(C(=O)[O-])=C(C[n+]3ccc(N)cc3)[C@H](C)[C@H]12 (stereo partly drawn) [Table I No. 20] | 
11 | 3.13 (≈ 8.98 µM) | 0.025 (≈ 0.0718 µM) | 0.2 (≈ 0.574 µM) | CSc1cc[n+](CC2=C(C(=O)[O-])N3C(=O)[C@H](C(C)O)[C@H]3[C@H]2C)cc1 (stereo partly drawn) [Table I No. 27] | 
12 | 3.13 (≈ 9.42 µM) | 0.025 (≈ 0.0752 µM) | 0.39 (≈ 1.17 µM) | COc1cc[n+](CC2=C(C(=O)[O-])N3C(=O)[C@H](C(C)O)[C@H]3[C@H]2C)cc1 (stereo partly drawn) [Table I No. 25] | 
13 | 3.13 (≈ 8.73 µM) | 0.05 (≈ 0.14 µM) | 0.76 (≈ 2.12 µM) | CCC(=O)c1cc[n+](CC2=C(C(=O)[O-])N3C(=O)[C@H](C(C)O)[C@H]3[C@H]2C)cc1 (stereo partly drawn) [Table I No. 13] | 
14 | 6.25 (≈ 19.3 µM) | 0.0125 (≈ 0.0387 µM) | 0.78 (≈ 2.41 µM) | CC(O)[C@H]1C(=O)N2C(C(=O)[O-])=C(C[n+]3ccsc3N)[C@H](C)[C@H]12 (stereo partly drawn) [Table I No. 2] | 
15 | 3.13 (≈ 9.42 µM) | 0.0125 (≈ 0.0376 µM) | 0.2 (≈ 0.602 µM) | CC(O)[C@H]1C(=O)N2C(C(=O)[O-])=C(C[n+]3ccc(N)c(N)c3)[C@H](C)[C@H]12 (stereo partly drawn) [Table I No. 21] | 
16 | 3.13 (≈ 9.47 µM) | 0.025 (≈ 0.0757 µM) | 0.39 (≈ 1.18 µM) | CCc1cc[n+](CC2=C(C(=O)[O-])N3C(=O)[C@H](C(C)O)[C@H]3[C@H]2C)cc1 (stereo partly drawn) [Table I No. 7] | 
17 | 3.13 (≈ 9.89 µM) | 0.025 (≈ 0.079 µM) | 0.2 (≈ 0.632 µM) | Cc1cccc[n+]1CC1=C(C(=O)[O-])N2C(=O)[C@H](C(C)O)[C@H]2[C@H]1C (stereo partly drawn) [Table I No. 4] | 
18 | 1.56 (≈ 4.52 µM) | 0.025 (≈ 0.0724 µM) | 0.39 (≈ 1.13 µM) | CC(O)[C@H]1C(=O)N2C(C(=O)[O-])=C(C[n+]3ccc(C(N)=O)cc3)[C@H](C)[C@H]12 (stereo partly drawn) [Table I No. 15] | 
